We go through 3 compounds from US7635467B2, “Mammalian multipotent stem cells and compositions, methods of preparation and methods of administration thereof” (The Board of Trustees of the University of Illinois, priority 2002, dated 2009).

Entries after “also recorded” stand apart in the source; their conditions may differ.

In assay [1] the test system is Genomic DNA from human MeSCs. The experiment in a line: Methylation-sensitive restriction enzyme (HpaII) digestion of genomic DNA from BrdU-treated MeSCs. Particulars: 0, 1 and 10 μM BrdU for 72 hr; dose-dependent.
The test system of a further assay is human MeSCs. The experiment in a line: Co-culture of BrdU-treated human MeSCs with differentiated NSCs, immunocytochemistry for bIII-tubulin and GFAP. Particulars: MeSCs treated with 10 μM BrdU for 5 days; seven days post-coculture. It is filed as cell-based.
Assay [2] concerns human MNSCs. In words: Exposure of human MNSC cultures to recombinant reelin. It is filed as cell-based. From the text:
The cell cluster is composed of undifferentiated cultured cells with migrating and differentiating cells forming the leading outer processes.

Assay [3] concerns human MNSCs. In words: Differentiation of human MNSCs treated with recombinant sAPP, serum-free conditions. It is filed as cell-based. The method, then: To investigate whether 22C11-induced inhibition of human MNSC differentiation occurs through the sequestering of sAPP or by blocking the N-terminal domain of APP on the membrane of differentiating cells, human MNSCs were treated with exogenous sAPP. Recombinant human sAPP was produced in yeast, which contains 95% sAPP695T (ending at amino acid 505 of 695) and 5% sAPP695.
The cell population of sAPP-treated human MNSCs at 5 DIV under the serum-free differentiation condition was also characterized by double immunofluorescence labeling of GFAP and bIII tubulin (FIG. 29). Treatment with sAPP dose dependently (25, 50, 100 ng/ml) increased the population of GFAP positive cells from an average of 45% in controls (no sAPP) to an average of 83% using the highest concentration of sAPP (100 ng/ml at 5 DIV).

Regarding `O=c1[nH]c(=O)n([C@H]2C[C@H](O)[C@@H](CO)O2)cc1Br` [BrdU, 5-bromo-2-deoxyuridine], the “HpaII digestion of genomic DNA (size of DNA fragments)” value in assay [1] is “prevented enzyme digestion; also recorded: prevents methylation-sensitive restriction enzyme digestion of DNA”. In addition, in the assay with human MeSCs, the “GFAP-immunopositive large flattened multipolar cells, of total cells” value is on record as “approximately 60%”; the “bIII-tubulin immunopositive small bipolar and unipolar cells, of total cells” value is reported as “approximately 40%”.

In the case of “recombinant reelin: large extracellular matrix (ECM) protein of approximately 400 kDa”, the “mobility of cells in the cluster” value in the assay on human MNSCs [2] (addition of recombinant reelin to NSCs in culture) is recorded as “increased mobility of cells”. Further, the “behaviour of processes of differentiating human MNSC cultures” value in the assay with human MNSCs [2] (exposure to recombinant reelin) is reported as “immediately retract their processes back to the cell cluster”.

Turning to “sAPP: Recombinant human sAPP produced in yeast, contains 95% sAPP695T (ending at amino acid 505 of 695) and 5% sAPP695”, the “population of GFAP positive cells” value in the assay with human MNSCs [3] (100 ng/ml at 5 DIV, serum-free, 45% in controls) is given as 83%. For the same compound, the “bIII-tubulin-positive neurons in total population of differentiated human MNSCs” value in the assay on human MNSCs [3] (highest concentration of sAPP, 5 DIV, serum-free, 51% in controls) was 13%. Besides, in the assay on human MNSCs [3] (low doses of sAPP (e.g., 25 ng/ml), 5 DIV, serum-free), the “differentiation pattern (GFAP / bIII-tubulin staining) compared to control” value is “increased glial (red) and neuronal (green) differentiation”. For the same compound, in the assay with human MNSCs [3] (sAPP treatment), the “TUNEL signal in human MNSCs” value is given as “did not increase the TUNEL signal”. Besides, in the assay with human MNSCs [3] (serum-free differentiation conditions, 25, 50 and 100 ng/ml, 5 days, dose-dependent), the “differentiation of human MNSCs” value is “differentiated human MNSCs; also recorded: increased the differentiation”.
